# According to patent publication US20050176735A1, “Polymorphs of zaleplon and methods for the preparation thereof” (priority 2000, published 2005):
# Assays:
# [1] = Moisture adsorption/desorption isotherm (moisture balance); type: physicochemical; details: for Hygroscopicity from moisture adsorption/desorption curves: 25° C., 5 to 95% relative humidity
# Protocol: Moisture adsorption; desorption data were collected on a VTI SGA-100 moisture balance system. available from VTI Corporation of Hialeah, Fla. For adsorption isotherms an adsorption range of 5 to 95% relative humidity and a desorption range of 95 to 5% relative humidity in 10% relative humidity increments were used for analysis. The samples were not dried prior to analysis. Equilibrium criteria used for analysis were less than 0.0100 weight percent change in 5 minutes with a maximum equilibration time of 3 hours if the weight criterion was not met. Data were not corrected for the initial moisture content of-the samples.
# [2] = Solid-state stability on storage at controlled temperature and relative humidity or on heating; details: for Stability on storage (form conversion): about 60° C. and about 75% relative humidity; for Stability on heating (form conversion): heated at about 80° C.
# [3] = Relative solubility in water
Structure (SMILES),Relative stability in aqueous and non-aqueous environments (aqueous and non-aqueous environments),Relative humidity up to which the form is generally anhydrous ([1]; relative humidity),"Stability on storage of hydrates (form conversion) ([2]; about 40° C. and about 75% relative humidity, time not stated)",Stability on storage (form conversion) ([2]; time not stated),Stability on heating (form conversion) [2],Form conversion in solvent (solvent system containing an organic solvent and optionally water),Form conversion in water (water),Hygroscopicity from moisture adsorption/desorption curves [1],Stability on storage ([2]; about 40° C. and about 75% relative humidity for 4 weeks),Stability on storage (form conversion) ([2]; 4 weeks (same time period)),Solubility in water relative to the other form [3],Relative stability versus the other forms ([2]; absence of water),General stability to humidity and temperature ([2]; broad range of humidity and temperature conditions)
"CCN(C(C)=O)c1cccc(-c2ccnc3c(C#N)cnn23)c1 [Form III, N-[3-(3-cyanopyrazolo[1,5a]pyrimidin-7-yl)phenyl]-N-ethylacetamide]",more stable in aqueous and non-aqueous environments than Form II,about 30%,resulting in a mixture of Forms II and III,converts to Form I,converts to Form I,,,,,,,,
"CCN(C(C)=O)c1cccc(-c2ccnc3c(C#N)cnn23)c1 [Form II, N-[3-(3-cyanopyrazolo[1,5a]pyrimidin-7-yl)phenyl]-N-ethylacetamide]",,,,,converts into Form I,converts into Form III,converted into Form III,moisture content of Form II of zaleplon varies depending on the relative humidity of its environment,stable,converts into Form I,mole soluble in water than Form III,,
"CCN(C(C)=O)c1cccc(-c2ccnc3c(C#N)cnn23)c1 [Form I, N-[3-(3-cyanopyrazolo[1,5a]pyrimidin-7-yl)phenyl]-N-ethylacetamide]",,,,,,,,non-hygroscopic,,,,more stable than Forms II and III,stable
